{
  "source": "ChEMBL document CHEMBL1151506",
  "about": "“Carboxyl-promoted enhancement of selectivity for the 3 adrenergic receptor. Negative charge of the sulfonic acid BMS-187413 introduces-3 binding selectivity” (Bioorg Med Chem Lett, 1997)",
  "key": {"[1]": {"target": "Beta-2 adrenergic receptor (Homo sapiens, UniProt P07550)", "sequence (P07550 whole entry)": "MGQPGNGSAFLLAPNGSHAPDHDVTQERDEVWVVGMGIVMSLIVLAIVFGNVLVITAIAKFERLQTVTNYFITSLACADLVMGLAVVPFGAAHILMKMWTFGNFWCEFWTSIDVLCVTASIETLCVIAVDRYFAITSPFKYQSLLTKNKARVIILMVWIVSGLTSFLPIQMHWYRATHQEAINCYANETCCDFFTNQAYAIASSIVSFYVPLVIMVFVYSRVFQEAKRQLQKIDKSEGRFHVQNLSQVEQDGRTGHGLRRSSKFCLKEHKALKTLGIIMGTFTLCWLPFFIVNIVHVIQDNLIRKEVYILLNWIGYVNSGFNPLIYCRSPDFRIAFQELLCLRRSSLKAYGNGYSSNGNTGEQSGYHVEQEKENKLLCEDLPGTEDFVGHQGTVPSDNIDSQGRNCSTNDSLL", "assay": "Ability to bind to human Beta-2 adrenergic receptor using membranes of stably transfected CHO cells", "format": "cell-based"}, "[2]": {"target": "Adrenergic receptor beta; ADRB1 & ADRB3 (Homo sapiens) (UniProt P08588+P13945)", "sequence (P08588 whole entry, looked up)": "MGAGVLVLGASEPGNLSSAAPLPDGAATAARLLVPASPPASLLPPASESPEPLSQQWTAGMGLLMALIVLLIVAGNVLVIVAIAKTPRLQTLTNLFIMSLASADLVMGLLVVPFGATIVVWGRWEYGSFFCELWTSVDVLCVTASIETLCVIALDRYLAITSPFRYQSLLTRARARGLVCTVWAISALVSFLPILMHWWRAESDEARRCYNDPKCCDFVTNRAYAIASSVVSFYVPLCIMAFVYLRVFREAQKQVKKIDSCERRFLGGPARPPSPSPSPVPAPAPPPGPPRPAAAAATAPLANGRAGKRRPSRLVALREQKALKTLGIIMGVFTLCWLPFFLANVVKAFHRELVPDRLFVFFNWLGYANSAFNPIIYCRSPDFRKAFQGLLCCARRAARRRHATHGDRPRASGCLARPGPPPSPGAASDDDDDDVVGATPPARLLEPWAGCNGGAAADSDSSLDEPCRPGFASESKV", "sequence (P13945 whole entry, looked up)": "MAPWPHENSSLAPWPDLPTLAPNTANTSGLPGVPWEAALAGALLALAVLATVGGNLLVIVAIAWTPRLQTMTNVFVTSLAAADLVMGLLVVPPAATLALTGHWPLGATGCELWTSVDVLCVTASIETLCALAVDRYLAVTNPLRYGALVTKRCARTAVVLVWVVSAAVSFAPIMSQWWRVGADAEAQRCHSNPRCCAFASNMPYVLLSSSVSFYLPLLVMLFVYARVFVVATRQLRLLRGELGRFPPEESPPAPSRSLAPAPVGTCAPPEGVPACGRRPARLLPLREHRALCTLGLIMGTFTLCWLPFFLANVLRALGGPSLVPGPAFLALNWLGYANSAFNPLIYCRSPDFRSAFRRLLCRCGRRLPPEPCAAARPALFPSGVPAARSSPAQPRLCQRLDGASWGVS", "assay": "Binding selectivity ratio for beta 3 over beta 1 AR (S beta3/beta1)", "format": "protein assay"}, "[3]": {"target": "Beta-1 adrenergic receptor (Homo sapiens, UniProt P08588)", "sequence (P08588 whole entry)": "as the sequence (P08588 whole entry, looked up) above", "assay": "Ability to bind to human Beta-1 adrenergic receptor using membranes of stably transfected CHO cells", "format": "cell-based"}, "[4]": {"target": "Beta-2 adrenergic receptor and beta-3 adrenergic receptor (Homo sapiens) (UniProt P07550+P13945)", "assay": "Binding selectivity ratio for beta 3 over beta 2 AR (S beta3/beta2)", "format": "protein assay"}, "[5]": {"target": "T1, Beta-3 adrenergic receptor (Homo sapiens, UniProt P13945)", "assay": "Ability to bind to human Beta-3 adrenergic receptor using membranes of stably transfected CHO cells", "format": "cell-based"}, "[6]": {"target": "T1, Beta-3 adrenergic receptor", "assay": "Effective concentration for stimulation of adenylyl cyclase activity in CHO-beta3 AR expressing cell membranes", "format": "functional"}, "[7]": {"target": "T1, Beta-3 adrenergic receptor", "assay": "Intrinsic activity as maximal cyclase activity in CHO-beta3 AR cell membranes compared to (-)-isoproterenol", "format": "functional, cell-based"}},
  "data": [
    {"smiles": "C[C@H](Cc1ccc(OCC(=O)NO)cc1)NC[C@H](O)c1cccc(Cl)c1", "values": [
      {"measurement": "Ki", "setting": "[1]", "value": 112, "unit": "nM"},
      {"measurement": "Selectivity", "setting": "[2]", "value": 0.16},
      {"measurement": "Ki", "setting": "[3]", "value": 310, "unit": "nM"},
      {"measurement": "Selectivity", "setting": "[4]", "value": 0.057},
      {"measurement": "Ki", "setting": "[5]", "value": 1960, "unit": "nM"},
      {"measurement": "EC50", "setting": "[6]", "value": 1610, "unit": "nM"},
      {"measurement": "Activity", "setting": "[7]", "value": 0.66}
    ]},
    {"smiles": "C[C@H](Cc1ccc(OCC(N)=O)cc1)NC[C@H](O)c1cccc(Cl)c1", "values": [
      {"measurement": "Ki", "setting": "[1]", "value": 170, "unit": "nM"},
      {"measurement": "Selectivity", "setting": "[2]", "value": 0.16},
      {"measurement": "Ki", "setting": "[3]", "value": 590, "unit": "nM"},
      {"measurement": "Selectivity", "setting": "[4]", "value": 0.046},
      {"measurement": "Ki", "setting": "[5]", "value": 3700, "unit": "nM"},
      {"measurement": "EC50", "setting": "[6]", "value": 1610, "unit": "nM"},
      {"measurement": "Activity", "setting": "[7]", "value": 0.6}
    ]},
    {"smiles": "COC(=O)COc1ccc(C[C@@H](C)NC[C@H](O)c2cccc(Cl)c2)cc1", "values": [
      {"measurement": "Ki", "setting": "[1]", "value": 3.2, "unit": "nM"},
      {"measurement": "Selectivity", "setting": "[2]", "value": 0.15},
      {"measurement": "Ki", "setting": "[3]", "value": 170, "unit": "nM"},
      {"measurement": "Selectivity", "setting": "[4]", "value": 0.0028},
      {"measurement": "Ki", "setting": "[5]", "value": 1150, "unit": "nM"},
      {"measurement": "EC50", "setting": "[6]", "value": 420, "unit": "nM"},
      {"measurement": "Activity", "setting": "[7]", "value": 0.69}
    ]},
    {"smiles": "C[C@H](Cc1ccc(OCP(C)(=O)O)cc1)NC[C@H](O)c1cccc(Cl)c1", "values": [
      {"measurement": "Ki", "setting": "[1]", "value": 73700, "unit": "nM"},
      {"measurement": "Selectivity", "setting": "[2]", "value": 7},
      {"measurement": "Ki", "setting": "[3]", "value": 140000, "unit": "nM"},
      {"measurement": "Selectivity", "setting": "[4]", "value": 3.7},
      {"measurement": "Ki", "setting": "[5]", "value": 19900, "unit": "nM"}
    ]},
    {"smiles": "C[C@H](Cc1ccc(OCS(=O)(=O)O)cc1)NC[C@H](O)c1cccc(Cl)c1", "values": [
      {"measurement": "Ki", "setting": "[1]", "value": 2250, "unit": "nM"},
      {"measurement": "Selectivity", "setting": "[2]", "value": 9.4},
      {"measurement": "Ki", "setting": "[3]", "value": 7600, "unit": "nM"},
      {"measurement": "Selectivity", "setting": "[4]", "value": 2.8},
      {"measurement": "Ki", "setting": "[5]", "value": 806, "unit": "nM"},
      {"measurement": "EC50", "setting": "[6]", "value": 60, "unit": "nM"},
      {"measurement": "Activity", "setting": "[7]", "value": 0.57}
    ]},
    {"smiles": "C[C@H](Cc1ccc(OCCO)cc1)NC[C@H](O)c1cccc(Cl)c1", "values": [
      {"measurement": "Ki", "setting": "[1]", "value": 260, "unit": "nM"},
      {"measurement": "Selectivity", "setting": "[2]", "value": 0.58},
      {"measurement": "Ki", "setting": "[3]", "value": 1250, "unit": "nM"},
      {"measurement": "Selectivity", "setting": "[4]", "value": 0.12},
      {"measurement": "Ki", "setting": "[5]", "value": 2140, "unit": "nM"},
      {"measurement": "EC50", "setting": "[6]", "value": 750, "unit": "nM"},
      {"measurement": "Activity", "setting": "[7]", "value": 0.77}
    ]},
    {"smiles": "C[C@H](Cc1ccc(OC(C(=O)O)C(=O)O)cc1)NC[C@H](O)c1cccc(Cl)c1", "values": [
      {"measurement": "Ki", "setting": "[1]", "value": 17100, "unit": "nM"},
      {"measurement": "Selectivity", "setting": "[2]", "value": 22},
      {"measurement": "Ki", "setting": "[3]", "value": 243000, "unit": "nM"},
      {"measurement": "Selectivity", "setting": "[4]", "value": 1.5},
      {"measurement": "Ki", "setting": "[5]", "value": 11100, "unit": "nM"}
    ]},
    {"smiles": "CC(C)OP(=O)(O)COc1ccc(C[C@@H](C)NC[C@H](O)c2cccc(Cl)c2)cc1", "values": [
      {"measurement": "Ki", "setting": "[1]", "value": 42600, "unit": "nM"},
      {"measurement": "Selectivity", "setting": "[2]", "value": 7.4},
      {"measurement": "Ki", "setting": "[3]", "value": 139000, "unit": "nM"},
      {"measurement": "Selectivity", "setting": "[4]", "value": 2.3},
      {"measurement": "Ki", "setting": "[5]", "value": 18800, "unit": "nM"},
      {"measurement": "EC50", "setting": "[6]", "value": 610, "unit": "nM"},
      {"measurement": "Activity", "setting": "[7]", "value": 0.59}
    ]},
    {"smiles": "C[C@H](Cc1ccc(OCC(=O)O)cc1)NC[C@H](O)c1cccc(Cl)c1", "values": [
      {"measurement": "Activity", "setting": "[7]", "value": 0.67}
    ]},
    {"smiles": "C[C@H](Cc1ccc(OCP(=O)(O)O)cc1)NC[C@H](O)c1cccc(Cl)c1", "values": [
      {"measurement": "Ki", "setting": "[1]", "value": 39700, "unit": "nM"},
      {"measurement": "Selectivity", "setting": "[2]", "value": "> 1.8"},
      {"measurement": "Ki", "setting": "[3]", "value": "> 100000", "unit": "nM"},
      {"measurement": "Selectivity", "setting": "[4]", "value": 0.72},
      {"measurement": "Ki", "setting": "[5]", "value": 55300, "unit": "nM"},
      {"measurement": "EC50", "setting": "[6]", "value": 2640, "unit": "nM"},
      {"measurement": "Activity", "setting": "[7]", "value": 0.53}
    ]}
  ]
}
